Experimental data published in patent US7981922B2, “Angiotensin I-converting enzyme (ACE) inhibitors” (University of Cape Town, priority 2005, dated 2011).

How the values were obtained:
N-domain of ACE = N-domain of ACE (Homo sapiens, UniProt P12821); assay: ACE inhibitory activity, fluorometric determination of His-Leu, N-domain; type: biochemical; conditions: substrate Z-Phe-His-Leu; no inhibition up to 500 μM; read-out: Ki (N-dom) ZPHL
Procedure: (§1) The ACE inhibitory activity (as tabulated in Table 1) was measured by the fluorometric determination of pthaldialdehyde-derivatised histidylleucine, a product of the enzyme reaction according to the method of Almquist et al.,^12 with some modifications. For tACEdelta36NJ and N-domain inhibition using Z-Phe-His-Leu as substrate: —10 μL of 0.05 mg/mL enzyme+120 μL inhibitor at ambient temperature for 3 hours. Inhibitor concentrations ranged from 2.0 μM to 500 μM. A 3.0 μL aliquot of this was assayed for enzyme activity using 30 μL of 1.0 mM […]. This was incubated (in triplicate) for 30 mins at 37° C. and stopped with 180 μL solution of 0.28N NaOH. To this alkalized mixture 12 μL of o-pthaldialdehyde (150 mM) was added and the mixture incubated for another 10 mins at room temperature. Reactions were stopped by adding 26 μL solution of 3N HCl. Fluorescence was measured at Ex=360 nm; Em=486 nm, 5×5 slit width along with a His-Leu standard calibration curve fluorometer: Varian Cary Eclipse plate reader.
(§2) All assays included enzyme incubated with buffer in the absence of inhibitor (i.e. 0 μM inhibitor concentration).

tACEdelta36NJ = tACEdelta36NJ (Homo sapiens, UniProt P12821); assay: ACE inhibitory activity, fluorometric determination of His-Leu, tACE; type: biochemical; conditions: for C domain-selectivity: C domain (tACE) versus N domain; for Ki: substrate Z-Phe-His-Leu, enzyme + inhibitor 3 hours at ambient temperature, read-out: Ki (tACE) ZPHL
Chain of tACEdelta36NJ (P12821 642-1230 limits assumed): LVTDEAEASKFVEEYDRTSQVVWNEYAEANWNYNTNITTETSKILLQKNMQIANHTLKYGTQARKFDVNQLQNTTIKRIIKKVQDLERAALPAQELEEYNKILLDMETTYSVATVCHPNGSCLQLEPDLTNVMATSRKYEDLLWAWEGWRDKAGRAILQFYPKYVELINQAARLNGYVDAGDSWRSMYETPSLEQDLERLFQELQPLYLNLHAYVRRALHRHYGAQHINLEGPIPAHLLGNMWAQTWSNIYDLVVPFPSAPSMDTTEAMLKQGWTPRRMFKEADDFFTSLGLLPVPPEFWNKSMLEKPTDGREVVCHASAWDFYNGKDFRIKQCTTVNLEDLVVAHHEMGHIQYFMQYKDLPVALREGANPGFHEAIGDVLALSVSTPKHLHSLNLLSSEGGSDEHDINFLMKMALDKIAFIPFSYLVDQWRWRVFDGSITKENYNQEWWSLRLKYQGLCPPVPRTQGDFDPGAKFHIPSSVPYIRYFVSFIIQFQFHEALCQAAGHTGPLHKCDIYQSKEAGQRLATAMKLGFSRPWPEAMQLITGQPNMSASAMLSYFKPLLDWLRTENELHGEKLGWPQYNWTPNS
Procedure: as §1, §2

ACE C-domain = conditions: C-domain versus N-domain of ACE; cited from earlier work

Chain of N-domain of ACE (P12821 40-624 limits assumed): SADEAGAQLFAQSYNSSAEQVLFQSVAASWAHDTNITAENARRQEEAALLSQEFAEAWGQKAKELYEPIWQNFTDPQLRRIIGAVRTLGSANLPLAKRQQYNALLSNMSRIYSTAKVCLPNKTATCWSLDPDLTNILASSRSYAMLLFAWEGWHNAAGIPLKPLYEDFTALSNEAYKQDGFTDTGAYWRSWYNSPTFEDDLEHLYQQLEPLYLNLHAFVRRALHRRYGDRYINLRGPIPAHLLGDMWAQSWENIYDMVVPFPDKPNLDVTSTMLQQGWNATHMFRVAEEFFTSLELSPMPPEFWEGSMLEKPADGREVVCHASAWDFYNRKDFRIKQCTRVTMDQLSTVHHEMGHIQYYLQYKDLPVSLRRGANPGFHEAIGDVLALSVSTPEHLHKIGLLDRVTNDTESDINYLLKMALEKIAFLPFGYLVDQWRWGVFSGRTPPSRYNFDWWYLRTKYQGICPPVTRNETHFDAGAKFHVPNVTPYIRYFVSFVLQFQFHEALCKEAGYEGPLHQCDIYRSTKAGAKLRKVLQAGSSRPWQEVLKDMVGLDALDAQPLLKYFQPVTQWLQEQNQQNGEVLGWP

| Ki (N-domain of ACE) [µM] | C domain-selectivity (tACEdelta36NJ) [fold] | Ki (tACEdelta36NJ) [µM] | SMILES | C-domain selective (ACE C-domain) [fold] |
| --- | --- | --- | --- | --- |
| > 500 | > 19 | 26.3 | NCCCC[C@H](N[C@@H](CCc1ccccc1)C(=O)O)C(=O)N[C@@H](Cc1c[nH]c2ccccc12)C(=O)O [Compound 6] | – |
| > 500 | > 72 | 7 | NCCCC[C@H](N[C@H](CCc1ccccc1)C(=O)O)C(=O)N[C@@H](Cc1c[nH]c2ccccc12)C(=O)O [Compound 6a] | – |
| – | – | – | O=C(N[C@@H](Cc1ccccc1)P(=O)(O)C1CCCC1C(=O)N[C@@H](Cc1c[nH]c2ccccc12)C(=O)O)OCc1ccccc1 (stereo partly shown) [RXP A380] | ~3000 |
